Experiment [1] addresses T1, human glucocorticoid receptor (GR) (Homo sapiens (Human), UniProt P04150). The experiment can be described thus: GRE Agonist Assay (ChagoK1 18:7:2 s4/GRE MMTV-GRE-LacZ reporter cell line). It is filed as cell-based. The conditions noted are these: for Emax at 1 µM: ChaGo-K-1, relative to full agonist effect of dexamethasone, read-out: TA agonist Observed max Effect at 1 μM (%); for TA agonist pEC50: transactivation in agonist mode, ChagoK1 GRE-LacZ reporter cells, 24 hours. The source says: GRE Agonist Assay A reporter cell line (ChagoK1 18:7:2 s4/GRE) was established by stable transfection of the human bronchogenic carcinoma cell line, ChaGo K1 (ATCC: HTB 168) with a MMTV-GRE-LacZ reporter construct. The generated cell line allows for identification of compounds showing agonist activity at the human glucocorticoid receptor (GR) via induction of LacZ gene expression. Ligand-activated GR binds to the Glucocorticoid Response Element (GRE) in the promoter of the LacZ gene and transcription is initiated. The resulting beta-galactosidase activity is measured through a colour reaction (change in absorbance). Cryo-preserved ChagoK1 18:7:2 s4/GRE cells were suspended in RPMI medium with 10% FBS, 1% NEAA and 1% sodium pyruvate, and seeded as 50000 cells/200 ul/well in 96-well plates and cultured at 37° C. with 5% CO2 and 95% humidity for 24 hours. 1 μl compound was added at different concentrations to the cells and incubated for another 24 hours. […] The reaction was then terminated by addition of 100 μl stop solution (300 mM glycine, 15 mM EDTA, pH 11.3, adjusted with NaOH). […]) Where A=min Y, B=max Y, C=log EC50 and D=Slope factor

Experiment [2] deals with T1, human glucocorticoid receptor (GR). The experiment can be described thus: GRE Antagonist Assay (ChagoK1 18:7:2 s4/GRE reporter cells pre-stimulated with dexamethasone). The experiment is classed as cell-based. As to conditions: for Emax at 1 µM: ChaGo-K-1, relative to full antagonist effect of Mifepristone (RU486), read-out: TA antagonist Observed max Effect at 1 μM (%); for TA antagonist pIC50: transactivation in antagonist mode, pre-stimulated with dexamethasone 70 nM. The source says: GRE Antagonist Assay A reporter cell line (ChagoK1 18:7:2 s4/GRE) was established by stable transfection of the human bronchogenic carcinoma celline, ChaGo K1 (ATCC: HTB 168) with a MMTV-GRE-LacZ reporter construct. The generated cell line allows for identification of compounds showing antagonist activity at the human glucocorticoid receptor (GR) via reduction of LacZ gene expression. Dexamethasone-activated GR binds to the Glucocorticoid Response Element (GRE) in the promoter of the LacZ gene and transcription is initiated. Antagonistic properties of compounds are assessed as beta-galactosidase intensity reduction from pre-stimulation with dexamethasone through a colour reaction (change in absorbance). Cryo-preserved ChagoK1 18:7:2 s4/GRE cells were suspended in RPMI medium with 10% FBS, 1% NEAA and 1% sodium pyruvate, and seeded as 50000 cells/200 ul/well in 96-well plates and cultured at 37° C. with 5% CO2 and 95% humidity for 24 hr. […] The reaction was then terminated by addition of 100 μl stop solution (300 mM glycine, 15 mM EDTA, pH 11.3, adjusted with NaOH). The plates were measured at 420 nm for absorbance in a SpectraMax reader (Molecular Device). […]) Where A=min Y, B=max Y, C=log IC50 and D=Slope factor

SMILES strings stand for the structures.

T1 sequence (P04150 whole entry): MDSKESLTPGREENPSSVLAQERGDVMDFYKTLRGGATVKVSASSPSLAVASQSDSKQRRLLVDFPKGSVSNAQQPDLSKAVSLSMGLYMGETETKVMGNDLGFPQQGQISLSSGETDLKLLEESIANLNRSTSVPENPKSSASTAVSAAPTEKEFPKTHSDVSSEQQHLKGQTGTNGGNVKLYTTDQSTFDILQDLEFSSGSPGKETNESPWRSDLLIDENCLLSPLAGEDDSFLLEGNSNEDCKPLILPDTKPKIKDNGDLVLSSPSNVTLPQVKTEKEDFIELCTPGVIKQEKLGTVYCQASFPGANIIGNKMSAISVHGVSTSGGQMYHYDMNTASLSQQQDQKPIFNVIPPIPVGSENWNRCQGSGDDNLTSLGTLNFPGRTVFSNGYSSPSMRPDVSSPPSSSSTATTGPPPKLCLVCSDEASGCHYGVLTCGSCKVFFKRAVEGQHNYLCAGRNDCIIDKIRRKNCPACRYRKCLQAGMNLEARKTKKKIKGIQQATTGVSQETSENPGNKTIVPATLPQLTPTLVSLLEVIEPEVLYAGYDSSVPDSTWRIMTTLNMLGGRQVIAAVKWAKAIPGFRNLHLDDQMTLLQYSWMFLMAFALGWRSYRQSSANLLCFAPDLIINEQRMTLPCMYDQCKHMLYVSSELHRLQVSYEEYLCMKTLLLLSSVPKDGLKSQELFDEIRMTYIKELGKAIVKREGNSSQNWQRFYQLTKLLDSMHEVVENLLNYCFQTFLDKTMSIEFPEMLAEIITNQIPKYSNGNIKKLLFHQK

In the case of `CC(C)[C@H](NC(=O)C(F)(F)F)[C@H](Oc1ccc2c(cnn2-c2ccc(=O)n(C)c2)c1)c1cc(F)cc(F)c1` [Example 4], in experiment [1], the Emax at 1 µM amounted to 42% and the “TA agonist pEC50” value was 8.7. In experiment [2], the Emax at 1 µM came out at 51% and the “TA antagonist pIC50” value was 8.8.

`CCn1cc(-n2ncc3cc(O[C@H](c4ccccc4)[C@@H](NC(=O)C(C)(F)F)C(C)C)ccc32)ccc1=O` [Example 23, N-[(1R,2S)-1-{[1-(1-ethyl-6-oxo-1,6-dihydropyridin-3-yl)-1H-indazol-5-yl]oxy}-3-methyl-1-phenylbutan-2-yl]-2,2-difluoropropanamide]: in experiment [1], the Emax at 1 µM was 14% and the “TA agonist pEC50” value is recorded as 7.6. Also, in experiment [2], the Emax at 1 µM was determined as 70% and the “TA antagonist pIC50” value came out at 6.4.

On to `CC(C)[C@H](NC(=O)C(F)(F)F)[C@H](Oc1ccc2c(cnn2-c2ccc(=O)n(C)c2)c1)c1cc(Cl)cc(Cl)c1` [Example 14, N-[(1R,2S)-1-(3,5-dichlorophenyl)-3-methyl-1-{[1-(1-methyl-6-oxo-1,6-dihydropyridin-3-yl)-1H-indazol-5-yl]oxy}butan-2-yl]-2,2,2-trifluoroacetamide], for which, in experiment [1], the Emax at 1 µM came to 20% and the “TA agonist pEC50” value is listed as 7.7. In experiment [2], the Emax at 1 µM came out at 65% and the “TA antagonist pIC50” value is reported as 6.9.

As to `CC(C)[C@H](NC(=O)C(C)(F)F)[C@H](Oc1cc2cnn(-c3ccc(=O)n(C)c3)c2cc1Cl)c1ccccc1` [Example 21, N-[(1R,2S)-1-{[6-chloro-1-(1-methyl-6-oxo-1,6-dihydropyridin-3-yl)-1H-indazol-5-yl]oxy}-3-methyl-1-phenylbutan-2-yl]-2,2-difluoropropanamide], in experiment [1], the Emax at 1 µM was determined as 42% and the “TA agonist pEC50” value is recorded as 8.3. Further, in experiment [2], the Emax at 1 µM stood at 48% and the “TA antagonist pIC50” value is listed as 7.3.

As for `CC(C)[C@H](NC(=O)C(F)(F)F)[C@H](Oc1cc2cnn(-c3ccc(=O)n(C)c3)c2cc1Cl)c1ccccc1` [Example 22, N-[(1R,2S)-1-{[6-chloro-1-(1-methyl-6-oxo-1,6-dihydropyridin-3-yl)-1H-indazol-5-yl]oxy}-3-methyl-1-phenylbutan-2-yl]-2,2,2-trifluoroacetamide], in experiment [1], the Emax at 1 µM is 37% and the “TA agonist pEC50” value is listed as 8.5. Also, in experiment [2], the Emax at 1 µM worked out at 56% and the “TA antagonist pIC50” value is 7.3.

As to `CC(C)[C@H](NC(=O)C(F)(F)F)[C@H](Oc1ccc2c(cnn2-c2ccc(=O)n(C)c2)c1)c1cc(F)cc(Cl)c1` [Example 18, N-[(1R,2S)-1-[3-chloro-5-fluorophenyl]-3-methyl-1-{[1-(1-methyl-6-oxo-1,6-dihydropyridin-3-yl)-1H-indazol-5-yl]oxy}butan-2-yl]-2,2,2-trifluoroacetamide], in experiment [1], the Emax at 1 µM came out at 32% and the “TA agonist pEC50” value is 8.8. Moreover, in experiment [2], the Emax at 1 µM is 61% and the “TA antagonist pIC50” value is reported as 7.6.

For the compound `CC(C)[C@H](NC(=O)C(F)(F)F)[C@H](Oc1ccc2c(cnn2-c2ccc(=O)n(C)c2)c1)c1ccccc1` [Example 2, 2,2,2-trifluoro-N-[(1R,2S)-3-methyl-1-{[1-(1-methyl-6-oxo-1,6-dihydropyridin-3-yl)-1H-indazol-5-yl]oxy}-1-phenylbutan-2-yl]acetamide], the Emax at 1 µM in experiment [1] was found to be 25%; in experiment [2] it was 67%.

For the compound `CC(C)[C@H](NC(=O)C(C)(F)F)[C@H](Oc1ccc2c(cnn2-c2ccc(=O)n(C)c2)c1)c1ccc(OC(F)(F)F)cc1` [Example 9, 2,2-difluoro-N-{(1R,2S)-3-methyl-1-{[1-(1-methyl-6-oxo-1,6-dihydropyridin-3-yl)-1H-indazol-5-yl]oxy}-1-[4-(trifluoromethoxy)phenyl]butan-2-yl}propanamide], in experiment [1], the Emax at 1 µM worked out at 22% and the “TA agonist pEC50” value amounted to 7.7. Besides, in experiment [2], the Emax at 1 µM was 63% and the “TA antagonist pIC50” value was determined as 6.9.

With `CC(C)[C@H](NC(=O)C(C)(F)F)[C@H](Oc1ccc2c(cnn2-c2ccc(=O)n(C)c2)c1)c1cc(F)cc(Cl)c1` [Example 19, N-[(1R,2S)-1-(3-chloro-5-fluorophenyl)-3-methyl-1-{[1-(1-methyl-6-oxo-1,6-dihydropyridin-3-yl)-1H-indazol-5-yl]oxy}butan-2-yl]-2,2-difluoropropanamide], in experiment [1], the Emax at 1 µM was found to be 38% and the “TA agonist pEC50” value is 8.5. Moreover, in experiment [2], the Emax at 1 µM is 58% and the “TA antagonist pIC50” value was 7.6.

In the case of `CC(C)[C@H](NC(=O)C(F)(F)F)[C@H](Oc1ccc2c(cnn2-c2ccc(=O)n(C)c2)c1)c1ccc(Cl)c(F)c1` [Example 17, N-[(1R,2S)-1-(4-chloro-3-fluorophenyl)-3-methyl-1-{[1-(1-methyl-6-oxo-1,6-dihydropyridin-3-yl)-1H-indazol-5-yl]oxy}butan-2-yl]-2,2,2-trifluoroacetamide], in experiment [1], the Emax at 1 µM amounted to 32% and the “TA agonist pEC50” value is 8.4. Besides, in experiment [2], the Emax at 1 µM is 79% and the “TA antagonist pIC50” value is on record as 7.4.

`CC(C)[C@H](NC(=O)C(F)(F)F)[C@H](Oc1ccc2c(cnn2-c2ccc(=O)n(C)c2)c1)c1ccc(C(F)(F)F)cc1` [Example 15, 2,2,2-trifluoro-N-{(1R,2S)-3-methyl-1-{[1-(1-methyl-6-oxo-1,6-dihydropyridin-3-yl)-1H-indazol-5-yl]oxy}-1-[4-(trifluoromethyl)phenyl]butan-2-yl}acetamide]: in experiment [1], the Emax at 1 µM was 27% and the “TA agonist pEC50” value is reported as 8.2. In experiment [2], the Emax at 1 µM worked out at 64% and the “TA antagonist pIC50” value was 7.3.

Take `CC(C)[C@H](NC(=O)C(C)(F)F)[C@H](Oc1ccc2c(cnn2-c2ccc(=O)n(C)c2)c1)c1cccc(Cl)c1` [Example 5, N-[(1R,2S)-1-(3-chlorophenyl)-3-methyl-1-{[1-(1-methyl-6-oxo-1,6-dihydropyridin-3-yl)-1H-indazol-5-yl]oxy}butan-2-yl]-2,2-difluoropropanamide]: in experiment [1], the Emax at 1 µM was found to be 28% and the “TA agonist pEC50” value came to 8.6. For the same compound, in experiment [2], the Emax at 1 µM stood at 72% and the “TA antagonist pIC50” value was determined as 6.7.

Take `CC(C)[C@H](NC(=O)C(F)(F)F)[C@H](Oc1ccc2c(cnn2-c2ccc(=O)n(C)c2)c1)c1ccc(Cl)cc1` [Example 13, N-[(1R,2S)-1-(4-chlorophenyl)-3-methyl-1-{[1-(1-methyl-6-oxo-1,6-dihydropyridin-3-yl)-1H-indazol-5-yl]oxy}butan-2-yl]-2,2,2-trifluoroacetamide]: in experiment [1], the Emax at 1 µM came out at 28% and the “TA agonist pEC50” value is 8.3. Moreover, in experiment [2], the Emax at 1 µM was 72% and the “TA antagonist pIC50” value was 6.9.

On to `CC(C)[C@H](NC(=O)C(C)(F)F)[C@H](Oc1ccc2c(cnn2-c2ccc(=O)n(C)c2)c1)c1ccc(C(F)(F)F)cc1` [Example 10, 2,2-difluoro-N-{(1R,2S)-3-methyl-1-{[1-(1-methyl-6-oxo-1,6-dihydropyridin-3-yl)-1H-indazol-5-yl]oxy}-1-[4-(trifluoromethyl)phenyl]butan-2-yl}propanamide], for which, in experiment [1], the Emax at 1 µM worked out at 40% and the “TA agonist pEC50” value is given as 8.1. For the same compound, in experiment [2], the Emax at 1 µM stood at 51% and the “TA antagonist pIC50” value is given as 7.0.

For the compound `CC(C)[C@H](NC(=O)C(C)(F)F)[C@H](Oc1ccc2c(cnn2-c2ccc(=O)n(C)c2)c1)c1ccc(Cl)c(F)c1` [Example 20, N-[(1R,2S)-1-(4-chloro-3-fluorophenyl)-3-methyl-1-{[1-(1-methyl-6-oxo-1,6-dihydropyridin-3-yl)-1H-indazol-5-yl]oxy}butan-2-yl]-2,2-difluoropropanamide], in experiment [1], the Emax at 1 µM was 43% and the “TA agonist pEC50” value was 8.3. In experiment [2], the Emax at 1 µM was 66% and the “TA antagonist pIC50” value worked out at 7.3.

Source of the values: patent US10196374B2 (AstraZeneca AB, priority 2014, dated 2019).
